Measured values from patent US6475531B1, “Safe botanical drug for treatment and prevention of influenza and increasing immune function” (priority 2001, dated 2002).
Values after ≈ are worked out from the molar mass of the structure shown.

Experiments:
Type in all cases: cell-based, influenza A viruses
A/Beijing/32/92 (H3N2) = experiment: Plaque inhibition assay in MDCK cells; conditions: Influenza A virus
A/Singapore/1/75 (H2N2) = experiment: microbe, parasite or virus in culture; conditions: Influenza A virus, H2N2, MDCK
A/England/939/69 = experiment: Plaque inhibition assay in MDCK cells; conditions: Influenza A virus
A/Brazil/11/78 (H1N1) = experiment: Plaque inhibition assay in MDCK cells; conditions: Influenza A virus

## NC(=O)c1ncn([C@@H]2O[C@H](CO)[C@@H](O)[C@H]2O)n1 [Ribavirin]
A/Beijing/32/92 (H3N2)
  IC50: 90 µg/mL (≈ 369 µM)
A/Singapore/1/75 (H2N2)
  IC50: 82 µg/mL (≈ 336 µM)
A/England/939/69
  IC50: 46 µg/mL (≈ 188 µM)
A/Brazil/11/78 (H1N1)
  IC50: 56 µg/mL (≈ 229 µM)

## NC12CC3CC(CC(C3)C1)C2 [Amantadine]
A/Beijing/32/92 (H3N2)
  IC50: 25 µg/mL (≈ 165 µM)
A/Singapore/1/75 (H2N2)
  IC50: 11 µg/mL (≈ 72.7 µM)
A/England/939/69
  IC50: 21 µg/mL (≈ 139 µM)
A/Brazil/11/78 (H1N1)
  IC50: 38 µg/mL (≈ 251 µM)
